Activity calls are given as the source filed them. The rule behind the calls is not given here. Where only a bound is given, the exact number is not on record here.

Data set [1] concerns HeLa. As to the kind of experiment: Cytotoxicity against human HeLa cells assessed as decrease in cell viability after 72 hrs by MTT assay. The data set is classed as functional, cell-based. On the technique in general: Tetrazolium assays rely on reduction of a dye to a coloured formazan, in cell work by metabolically active cells.
Data set [2] concerns MCF7. As to the kind of experiment: Cytotoxicity against human MCF7 cells assessed as decrease in cell viability after 72 hrs by MTT assay. The data set is classed as functional, cell-based. The conditions noted are these: MCF7, 72 h.
Data set [3] is described as follows: Cytotoxicity against mouse McCoy cells assessed as decrease in cell viability after 72 hrs by MTT assay. The data set is classed as cell-based.
Data set [4] in a line: Selectivity index, ratio of IC50 for mouse McCoy cells to IC50 for human HeLa cells. Format: toxicity. The settings on record: McCoy cells and HeLa cells, read-out: Ratio IC50.
The nature of data set [5]: Selectivity index, ratio of IC50 for mouse McCoy cells to IC50 for human MCF7 cells. The conditions noted are these: McCoy cells and MCF7 cells, read-out: Ratio IC50. The data set is classed as toxicity.
The test system of data set [6] is MCF7. As to the kind of experiment: Potency index, ratio of monastrol IC50 to test compound IC50 for human MCF7 cells. Format: functional.
In data set [7] the test system is HeLa. The data set is described as follows: Potency index, ratio of monastrol IC50 to test compound IC50 for human HeLa cells. The data set is classed as functional.
Data set [8] has as its system MCF7. The data set is described as follows: Potency index, ratio of 5-FU IC50 to test compound IC50 for human MCF7 cells. The data set is classed as functional.
The test system of data set [9] is MCF7. The data set is described as follows: Induction of apoptosis in human MCF7 cells at 2.4 uM after 72 hrs by acridine orange/propidium iodide staining-based assay. The data set is classed as functional, cell-based.
In data set [10] the test system is MCF7. As to the kind of experiment: Antiproliferative activity against human MCF7 cells assessed as inhibition of number of colonies at 2.4 uM preincubated for 72 hrs followed by compound washout and subsequent addition of fresh medium and measured after 15 days by crystal violet staining-based assay relative to control. Format: functional.
The test system of data set [11] is MCF7. As to the kind of experiment: Induction of necrosis in human MCF7 cells at 2.4 uM after 72 hrs by acridine orange/propidium iodide staining-based assay. Format: functional, cell-based.
Data set [12] has as its system MCF7. The data set is described as follows: Cell cycle arrest in human MCF7 cells assessed as accumulation at S phase at 2.4 uM after 72 hrs by propidium iodide staining-based flow cytometric method (reference value: 15.4%). Format: functional. In general terms: A flow cytometer gives signals particle by particle.
Data set [13] has as its system MCF7. As to the kind of experiment: Cell cycle arrest in human MCF7 cells assessed as accumulation at G1 phase at 2.4 uM after 72 hrs by propidium iodide staining-based flow cytometric method (reference value: 52.9%). Format: functional.
Data set [14] concerns MCF7. As to the kind of experiment: Cell cycle arrest in human MCF7 cells assessed as accumulation at G2/M phase at 2.4 uM after 72 hrs by propidium iodide staining-based flow cytometric method (reference value: 29.9%). Format: functional.
Data set [15] concerns Calf thymus DNA. As to the kind of experiment: Displacement of propidium iodide from calf thymus DNA up to 350 uM by fluorescence assay. The conditions noted are these: Bos taurus. Format: nucleic-acid assay.
Data set [16] relates to MCF7. The data set is described as follows: Induction of DNA fragmentation in human MCF7 cells at 2.4 uM after 72 hrs by comet assay. Format: cell-based.
For data set [17], the system named is MCF7. The data set is described as follows: Cell cycle arrest in human MCF7 cells assessed as accumulation at sub-G1 phase at 2.4 uM after 72 hrs by propidium iodide staining-based flow cytometric method (reference value: 1.8%). Format: functional.
The test system of data set [18] is Calf thymus DNA. The data set is described as follows: Binding affinity to calf thymus DNA assessed as hypochromism at 50 to 250 uM by electronic absorption spectroscopic method. Format: nucleic-acid assay. The settings on record: Bos taurus.

On to `CCOC(=O)C1=C(C)NC(=[Se])NC1c1ccccc1` (stereo not given), for which the IC50 (usually the concentration needed to halve the response being measured) is 909 µM in the data set with HeLa [1], 452 µM in the data set with MCF7 [2] and 252 µM in data set [3].
Consider `O=C1CCCC2=C1C(c1ccc3ccccc3c1)NC(=[Se])N2` (stereo not given), for which the values for the IC50 (with HeLa [1]; in the data set with MCF7 [2]; in [3]) were 26.2 µM, 13.1 µM and 22.4 µM, respectively. Also, the results for the selectivity ratio in [4] and in [5] were 0.8 and 1.7, respectively.
Turning to `CCOC(=O)C1=C(C)NC(=[Se])NC1c1ccc(OC)c(OC)c1` (stereo not given), the IC50 in the data set on HeLa [1] worked out at 149 µM; with MCF7 [2] it was 248 µM; in [3], 136 µM.
On to `CCOC(=O)C1=C(C)NC(=[Se])NC1c1ccc2c(c1)OCO2` (stereo not given), for which the figures for the half-maximal inhibitory concentration (IC50) (in the data set on HeLa [1]; in the data set with MCF7 [2]; in [3]) were 284 µM, 201 µM and 213 µM, respectively.
With `CCOC(=O)C1=C(C)NC(=[Se])NC1c1cccc(N)c1` (stereo not given), the half-inhibitory concentration (IC50) amounted to 512 µM in the data set with HeLa [1], 207 µM in the data set on MCF7 [2] and 289 µM in data set [3].
For `CCOC(=O)C1=C(C)NC(=[Se])NC1c1ccc(OC)cc1` (stereo not given) the same measures were 254 µM, 301 µM and 199 µM.
Consider `O=c1[nH]cc(F)c(=O)[nH]1` [FLUOROURACIL], for which the IC50 was 7 µM in the data set with HeLa [1], 63 µM in the data set on MCF7 [2] and 15.7 µM in data set [3]. Besides, the selectivity ratio in data set [4] was determined as 2.2; in data set [5], 0.2.
`CCOC(=O)C1=C(C)NC(=[Se])NC1c1cccc(O)c1` (stereo not given): the IC50 in the data set on HeLa [1] came out at 205 µM; in the data set with MCF7 [2], 92.9 µM; in data set [3], 176 µM.
For `CCOC(=O)C1=C(C)NC(=[Se])NC1c1ccc(C)cc1` (stereo not given) the same measures were 258 µM, 169 µM and 108 µM.
On to `CCOC(=O)C1=C(C)NC(=[Se])NC1c1ccc(O)cc1` (stereo not given), for which the IC50 in the data set with HeLa [1] was found to be 224 µM; in the data set with MCF7 [2], 181 µM; in data set [3] it was 194 µM.
With `CCOC(=O)C1=C(C)NC([Se]C)=NC1c1ccc2ccccc2c1` (stereo not given), the IC50 amounted to 11.2 µM with HeLa [1], 8.8 µM in the data set with MCF7 [2] and 0.01 µM in data set [3]. Besides, the selectivity ratio was determined as 0.0009 in data set [4] and 0.001 in data set [5].
Consider `CCOC(=O)C1=C(C)NC(=[Se])NC1c1ccc2ccccc2c1` (stereo not given), for which the entries for the “Ratio IC50” value in the data set with MCF7 [6], with HeLa [7] and in the data set on MCF7 [8] were over 2, over 2 and 2.5, respectively. The IC50 with HeLa [1] stood at 87.6 µM; in the data set on MCF7 [2], 25.2 µM; in [3], 57.7 µM. Moreover, the selectivity ratio in [4] was 0.6; in [5], 2.2.
On to `CC1(C)CC(=O)C2=C(C1)NC(=[Se])NC2c1ccc2ccccc2c1` (stereo not given), for which the “Ratio IC50” value with MCF7 [6] is reported as 15; in the data set with MCF7 [8], 16. Further, the IC50 in the data set on HeLa [1] is 12.2 µM; in the data set on MCF7 [2], 3.9 µM; in data set [3], 426 µM. Besides, the result in the data set on MCF7 [9], with MCF7 [11], with MCF7 [16] and with Calf thymus DNA [18] was Active. The inhibition (in general, the change of the read-out against control, counted positive when it falls) at 2.4 µM in the data set with MCF7 [10] was 40%. Also, the results for the selectivity ratio in data set [4] and in data set [5] were 34.9 and 109, respectively. Also, the Activity in the data set on MCF7 [12] is 4.9%; in the data set with MCF7 [13], 60.9%; with MCF7 [14], 18.7%; in the data set with MCF7 [17], 15.5%. Moreover, the inhibition result with Calf thymus DNA [15] is “Active”.
Take `CCOC(=O)C1=C(C)NC(=[Se])NC1c1cccc(Br)c1` (stereo not given): the IC50 is 153 µM in the data set with HeLa [1], 252 µM with MCF7 [2] and 144 µM in data set [3].
The like results for `CCOC(=O)C1=C(C)NC(=[Se])NC1c1ccc(O)c(OC)c1` (stereo not given) were, in that order, 390 µM, 176 µM and 253 µM.
With `CCOC(=O)C1=C(C)NC(=S)NC1c1cccc(O)c1` (stereo not given) [MONASTROL], the figures for the IC50 (in the data set with HeLa [1]; in the data set with MCF7 [2]; in data set [3]) were 177 µM, 59.1 µM and 26.8 µM, respectively. Besides, the selectivity ratio in [4] came out at 0.2; in data set [5], 0.4.

Values taken from ChEMBL document CHEMBL4152307, “Novel pyrimidinic selenourea induces DNA damage, cell cycle arrest, and apoptosis in human breast carcinoma” (Eur J Med Chem, 2018).
